Results from US20210045381A1, “FORMULATIONS” (priority 2018, published 2021).

Assay: Release of pesticide from 3-D printed binary solid objects in a stirred dissolution basket
Type: physicochemical
Settings: for Percentage Release, Water - after 720 min.: from binary solid object T7 (T3 + T4, no surfactant); for Percentage Release, Water - after 720 min. / Percentage Release, Water - after 30 min.: into water; for Percentage Release, S1 - after 30 min. / Percentage Release, S2 - after 30 min.: from binary solid object T7; for Percentage Release, S1 - after 30 min.: into S1 = water with 0.5% w/w Agnique FOH 90C-20; for Percentage Release, S2 - after 30 min.: into S2 = water with 0.5% w/w Agnique FOH 90C-20 and 1% Tween 80
Method: This Example illustrates a binary (two-sectioned) extruded solid object displaying both slow and fast release. The release of pesticide from the 3-D printed binary solid object T7 of Example 2 (containing T3 and T4) was measured. In each experiment three T7 solid objects were added to a dissolution basket which was stirred at 30 rpm. Release was measured into water; into water containing a commercially available surfactant (S1); and into water with two different types of commercially available surfactant (S2). […] Binary solid object T7 released 64% of the pesticide in 720 minutes. The release of the fungicide azoxystrobin in the same time period was only 27%; this was slow release. Release rates into the two surfactant containing media were faster for both pesticides. S1 contained water with 0.5% w/w of Agnique®FOH 90C-20 whereas S2 contained water with 0.5% w/w Agnique®FOH 90C-20 and 1% Tween® 80. Tween® 80 is a non-ionic surfactant: polyoxyethylene (20) sorbitan monooleate.
This Example illustrates the effect of a surfactant of the release profile of a binary (two-sectioned) extruded solid object. Similarly to Example 3, the releases of pesticides from the 3-D printed binary solid object T8 of Example 2 (containing T5 and T6) were measured; three solid objects T8 were added to a dissolution basket which was stirred at 30 rpm. […] Furthermore, compared to solid object T7 releasing fomesafen into water which already contains a high concentration of the same surfactant (S1 of Example 2), the release from T8 (the formulation with built-in surfactant) was considerably faster (78% versus 39.3% [S1]). […] Similar to the case for fomesafen we also see that the T8 azoxystrobin section (with built-in surfactant) released considerably more of the azoxystrobin than the T7 (surfactant free) solid object releasing into a surfactant solution (37% versus 28.9%).

[1] = from binary solid object T7 (sections T3 + T4, no surfactant), three objects, basket stirred at 30 rpm, 30 min
[2] = from binary solid object T7 into water, 720 min
[3] = from binary solid object T8 (fomesafen section T5, azoxystrobin section T6, both with built-in alkyl ethoxylate surfactant), 30 rpm, 30 min

CS(=O)(=O)NC(=O)c1cc(Oc2ccc(C(F)(F)F)cc2Cl)ccc1[N+](=O)[O-] [Fomesafen]
Increase of release rate from T8 compared to T7 (factor, water, 30 min, T8 (with surfactant) versus T7 (no surfactant)): three
Percentage Release, Water - after 720 min. (30 rpm, 720 min): 64%
Percentage Release, Water - after 30 min. [1]: 23.6%
Percentage Release, S1 - after 30 min. (30 rpm, 30 min): 39.3%
Percentage Release, S2 - after 30 min. (30 rpm, 30 min): 45.9%
Release profile (in words) [2]: fast release
Percentage Release, Water - after 30 min. [3]: 78%
Release profile (in words) (from binary solid object T8 into water, 30 min): fast release

CO/C=C(/C(=O)OC)c1ccccc1Oc1cc(Oc2ccccc2C#N)ncn1 [Azoxystrobin]
Percentage Release, Water - after 720 min. (30 rpm, 720 min): 27%
Percentage Release, Water - after 30 min. [1]: 15.6%
Percentage Release, S1 - after 30 min. (30 rpm, 30 min): 28.9%
Percentage Release, S2 - after 30 min. (30 rpm, 30 min): 48.3%
Release profile (in words) [2]: slow release
Percentage Release, Water - after 30 min. [3]: 37%
